{
  "source": "patent US20260373103A1",
  "about": "“COMPOSITIONS AND METHODS FOR PREVENTING CARDIOMYOPATHY” (OHIO STATE INNOVATION FOUNDATION, priority 2022, published 2026)",
  "key": {"HeLa cells": {"system": "HeLa cells", "experiment": "Mitophagy inducer screen by TOM20 turnover", "assay_type": "cell-based", "conditions": "cellular TOM20 turnover assay", "procedure": "The enzymatic activity of Parkin is to function as an E3 ubiquitin ligase. […] To investigate TOM20 ubiquitination during mitophagy, we treated HeLa cells stably expressing YFP-Parkin (Hela-Parkin) for up to 18 h with both the mitochondrial complex III inhibitor antimycin A and the ATP synthase inhibitor oligomycin (antimycin A/oligomycin/[A/O]; FIG. 1A). […] A/O treatment also results in a decline in the abundance of the OMM protein TOM40 and the inner mitochondrial protein TIM23 (FIG. 1A). […] In this context, increased expression of USP30 blocked the accumulation of ubiquitinated TOM20 and prevented the destruction of this outer mitochondrial protein, as well as TOM40 and TIM23, after A/O treatment (FIG. 1A). We then employed this cellular assay to monitor TOM20 turnover, and analyzed compounds known to be associated with the ubiquitination process for inhibitors of USP30. […] We defined the effects of this chemical using biochemical assays. […] Initially to assess mitophagy in cells, we monitored the degradation of the inner membrane protein, the translocase of the inner membrane 23 (TIM23), by immunoblotting (FIG. 5A). […] USP30's overexpression prevented a reduction in TIM23 and TOM40 levels."}, "[1]": {"system": "HeLa-Parkin cells and HeLa-Parkin cells that express USP30", "experiment": "Mitophagy in cells by mt-Keima fluorescence FACS", "assay_type": "cell-based", "procedure": "HeLa cells and mouse embryonic fibroblasts (MEFs) were grown in Dulbecco's minimum essential medium (DMEM) with 10% fetal bovine serum (FBS) supplemented with penicillin-streptomycin. HeLa Parkin, PINK1 KO cells, WT and MFN2 KO cells were previously described. Cells stably expressing USP30 were generated using lentiviral vectors of pLVX-Puro-Myc-USP30. The USP30 plasmid was obtained from Addgene. The plasmid was transferred into a lentiviral vector and viral particles were prepared by transiently transfecting HEK293T using standard methods. For the drug treatment experiments, cells were incubated in medium containing a mixture of 5 μM oligomycin and 5 μM antimycin A (A/O; see figures for treatment times). In 18 h treatment, A/O were used in combination with 10 μM quinolyl-valyl-O-methylaspartyl-[−2,6-difluorophenoxy]-methyl ketone (QVD), a broad-spectrum caspase inhibitor. ST51000539 (ST-539) was purchased from Tim Tec, Inc. Other chemicals were from Sigma-Aldrich (St. Louis, MO, USA). […]\nWe employed a sensitive fluorescence-activated cell sorting (FACS)-based method for detecting mitophagy using the pH-dependent fluorescent protein Keima. […] We exploited the mt-Keima probe and measured mitophagy in HeLa-Parkin cells and HeLa-Parkin cells that express USP30. […]"}, "[2]": {"system": "Human induced pluripotent stem cell-derived cardiomyocytes", "experiment": "Doxorubicin-induced cell death in hiPSC-CMs", "assay_type": "cell-based", "conditions": "48 hours, doxorubicin+ST-539"}, "mice": {"system": "mice", "experiment": "Safety / tolerability in mice", "assay_type": "in vivo", "conditions": "25 mg/kg/day i.p. for 5 days", "procedure": "The mt-Keima mouse. ST-539 was dissolved into 1% DMSO in Sesame oil and injected intraperitoneally (i.p.) at doses of 25 mg/kg/day with five total doses. Both male and female mice were used in this study. The control group received vehicle only. Echocardiographic measurements were taken using a Vevo3100 Visual Sonics (Visual Sonics) system. The mice were lightly anesthetized with isoflurane and the ejection fraction, fractional shortening, and ventricular chamber dimensions were determined using 2-D-guided M mode images. Ejection fraction, fractional shortening, ventricular chamber dimensions, and left ventricular mass were calculated automatically using the VevoLAB program. All experiments involving animals were approved by the Institutional Animal Care and Use Committee at The Ohio State University."}, "hippocampus of the brain": {"system": "hippocampus of the brain", "experiment": "In vivo mitophagy in hippocampus of the brain", "parameters": "species or system mouse", "conditions": "25 mg/kg/day i.p. for 5 days", "procedure": "(§1) Fluorescent samples were examined with a Zeiss LSM 780 confocal microscope (Carl Zeiss MicroImaging). As previously described^2, fluorescence of mt-Keima was imaged in two channels via two sequential excitations (458 nm, green; 561 nm, red) and using a 570- to 695-nm emission range. Confocal experiments for parkin translocation were performed using a HeLa cell line stably expressing YFP-Parkin plated on 35 mm coverglass #1.5 chamber dishes (MatTek). These cells were treated for 2 h with DMSO as vehicle control or with A/O. YFP was imaged with a 514-nm excitation and 520- to 570-emission filters. Representative confocal images were processed using Imaris software by contrast linear stretch only. Calculation of mitophagy based on mt-Keima signal was performed using Zeiss ZEN software as previously described^2. The average of four images from each tissue sample was taken, and the values were normalized to the average value seen in the controls, assigned the value of one.\n(§2) The mt-Keima mouse. […] The mice were lightly anesthetized with isoflurane and the ejection fraction, fractional shortening, and ventricular chamber dimensions were determined using 2-D-guided M mode images. Ejection fraction, fractional shortening, ventricular chamber dimensions, and left ventricular mass were calculated automatically using the VevoLAB program. […]"}, "[3]": {"system": "liver tissue of mt-Keima mice", "experiment": "In vivo mitophagy in liver, mt-Keima mice", "parameters": "species or system mouse", "conditions": "25 mg/kg/day i.p. for 5 days", "procedure": "as §1, §2"}, "[4]": {"system": "HeLa-Parkin and HeLa-Parkin cells expressing USP30", "experiment": "Cell proliferation", "assay_type": "cell-based", "conditions": "ST-539, 24 hours"}, "[5]": {"system": "heart tissue of mt-Keima mice", "experiment": "In vivo mitophagy in heart, mt-Keima mice", "parameters": "species or system mouse", "conditions": "25 mg/kg/day i.p. for 5 days", "procedure": "as §1, §2"}, "mitochondrial function": {"system": "mitochondrial function", "experiment": "Mitochondrial function overall in cells", "assay_type": "cell-based", "conditions": "regardless of USP30 expression", "procedure": "HeLa cells and mouse embryonic fibroblasts (MEFs) were grown in Dulbecco's minimum essential medium (DMEM) with 10% fetal bovine serum (FBS) supplemented with penicillin-streptomycin. HeLa Parkin, PINK1 KO cells, WT and MFN2 KO cells were previously described. Cells stably expressing USP30 were generated using lentiviral vectors of pLVX-Puro-Myc-USP30. The USP30 plasmid was obtained from Addgene. The plasmid was transferred into a lentiviral vector and viral particles were prepared by transiently transfecting HEK293T using standard methods. For the drug treatment experiments, cells were incubated in medium containing a mixture of 5 μM oligomycin and 5 μM antimycin A (A/O; see figures for treatment times). In 18 h treatment, A/O were used in combination with 10 μM quinolyl-valyl-O-methylaspartyl-[−2,6-difluorophenoxy]-methyl ketone (QVD), a broad-spectrum caspase inhibitor. ST51000539 (ST-539) was purchased from Tim Tec, Inc. Other chemicals were from Sigma-Aldrich (St. Louis, MO, USA). For FACS analysis, cells stably expressing mt-Keima were incubated in medium containing a mixture of […] antimycin A for 1.5 h. Prior to A/O treatment, cultures were treated with DMSO or ST-539 at 3 μg/ml. Cells were trypsinized, washed once with PBS buffer and then resuspended into 500 μl of PBS prior to analysis using a BD Fortessa flow cytometer as previously described."}},
  "note": "“Also recorded” adds a separate entry of the source.",
  "data": [
    {"smiles": "CC(C)(C)NS(=O)(=O)c1cccc2c(NC(=O)C(Cc3ccccc3)NC(=O)c3ccccc3)cccc12", "note": "(stereo not shown) [ST-539]", "values": [
      {"measurement": "potency as mitophagy inducer in screen", "setting": "HeLa cells", "value": "most potent mitophagy inducer"},
      {"measurement": "A/O induced mitophagy (mt-Keima FACS)", "setting": "[1]; ST-539 3 μg/ml, HeLa-Parkin cells expressing USP30", "value": "restored A/O induced mitophagy"},
      {"measurement": "mitophagy in the absence of mitochondrial stress", "setting": "[1]; cellular studies, ST-539, no stress", "value": "minimal change in mitophagy"},
      {"measurement": "doxorubicin-induced cell death (percent survival of hiPSC-CMs)", "setting": "[2]", "value": "reduces doxorubicin-induced cell death"},
      {"measurement": "safety / tolerability in mice", "setting": "mice", "value": "appears to be safe in mice"},
      {"measurement": "mitophagic flux in hippocampus", "setting": "hippocampus of the brain", "value": "remains unchanged"},
      {"measurement": "hepatic mitophagy", "setting": "[3]", "value": "remains unchanged; also recorded: inability of ST-539 to induce hepatic mitophagy"},
      {"measurement": "cell proliferation", "setting": "[4]", "value": "maintained"},
      {"measurement": "cardiac mitophagy (red mt-Keima signal in heart tissue)", "setting": "[5]", "value": "marked induction of the red signal in the heart tissue; also recorded: efficiently induces cardiac mitophagy"},
      {"measurement": "effect on mitochondrial function", "setting": "mitochondrial function", "value": "minimal effect on mitochondrial function; also recorded: marginally alters mitochondrial function"}
    ]}
  ]
}
